Biological target: DNA-PK (Homo sapiens (Human), UniProt P78527)
Test: DNA-PK/biochemical assay (FlashPlate kinase assay)
Conditions: 5 μM ATP, 90 min, room temperature; read-out: Binding DNA-PK IC50
Description: […] To this end, 1.5 μg of the DNA-PK/protein complex and 100 ng of biotinylated substrate, such as, for example, PESQEAFADLWKK biotin-NH2 (“biotin-DNA-PK peptide”), in a total volume of 36.5 μl (34.25 mM HEPES/KOH, 7.85 mM Tris-HCl, 68.5 mM KCl, 5 μM ATP, 6.85 mM MgCl2, 0.5 mM EDTA, 0.14 mM EGTA, 0.69 mM DTT, pH 7.4), were incubated at room temperature for 90 min with 500 ng of DNA from calf thymus, 0.1 μCi of 33P-ATP and 1.8% of DMSO per well with or without the test compound. The reaction was stopped using 50 μl/well of 200 mM EDTA. After incubation for a further 30 min at room temperature, the liquid was removed. Each well was washed three times with 100 μl of 0.9% sodium chloride solution. A non-specific reaction (blank value) was determined using 10 μM of a proprietary kinase inhibitor. The radioactivity measurement was carried out by means of a TopCount. IC50 values were calculated in RS1. • Literature: Kashishian et al. (2003) Molecular Cancer Therapeutics 1257.

IC50 [nM]	Structure (SMILES)
< 100	c1nc(N2CCCCC2)c2ccc(N3CCOCC3)cc2n1 [compound 1, 7-Morpholin-4-yl-4-piperidin-1-yl-quinazoline]
< 100	Clc1nc(N2CCCCC2)c2ccc(N3CCOCC3)cc2n1 [compound 2]
100 to 500	c1ccc([C@@H]2CCCN(c3ncnc4cc(N5CCOCC5)ccc34)C2)cc1 [compound 5, 7-Morpholin-4-yl-4-((S)-3-phenyl-piperidin-1-yl)-quinazoline]
< 100	c1ccc([C@H]2CCCN(c3ncnc4cc(N5CCOCC5)ccc34)C2)cc1 [compound 6, 7-Morpholin-4-yl-4-((R)-3-phenyl-piperidin-1-yl)-quinazoline]
100 to 500	c1nc(N2CCCC2)c2ccc(N3CCOCC3)cc2n1 [compound 7, 7-Morpholin-4-yl-4 pyrrolidin-1-yl-quinazoline]
100 to 500	c1nc(N2CCCCCC2)c2ccc(N3CCOCC3)cc2n1 [compound 8, 4-Azepan-1-yl-7-morpholin-4-yl-quinazoline]
500 to 1000	c1nc(N2CCCC(CC3CCCCC3)C2)c2ccc(N3CCOCC3)cc2n1 (centres unmarked) [compound 10]
100 to 500	c1ccc(C[C@@H]2CCCN(c3ncnc4cc(N5CCOCC5)ccc34)C2)cc1 [compound 11, 4-((S)-3-Benzyl-piperidin-1-yl)-7-morpholin-4-yl-quinazoline]
< 100	c1ccn(CC2CCCN(c3ncnc4cc(N5CCOCC5)ccc34)C2)c1 (centres unmarked) [compound 13, 7-Morpholin-4-yl-4-(3-pyrrol-1-ylmethyl-piperidin-1-yl)-quinazoline]
100 to 500	O=C(C1CCCN(c2ncnc3cc(N4CCOCC4)ccc23)C1)N1CCCCC1 (centres unmarked) [compound 20, [1-(7-Morpholin-4-yl-quinazoline-4-yl)-piperidin-3-yl]-piperidin-1-yl-methanone]

The remaining lines, values behind:

Structure (SMILES)	IC50 [nM]
COc1ccc(C2CCCN(c3ncnc4cc(N5CCOCC5)ccc34)C2)cc1 (centres unmarked) [compound 3, 4-[3-(4-Methoxy-phenyl)piperidin-1-yl]-7-morpholin-4-yl-quinazoline]	100 to 500
c1ccc(C2CCCN(c3ncnc4cc(N5CCOCC5)ccc34)C2)cc1 (centres unmarked) [compound 4, 7-Morpholin-4-yl-4-(3-phenylpiperidin-1-yl)quinazoline]	< 100
Fc1ccc2[nH]cc(C3CCCN(c4ncnc5cc(N6CCOCC6)ccc45)C3)c2c1 (centres unmarked) [compound 9, 4-[3-(5-Fluoro-1H-indol-3-yl)piperidin-1-yl]-7-morpholin-4 ylquinazoline]	500 to 1000
CC1CCCN(c2ncnc3cc(N4CCOCC4)ccc23)C1 (centres unmarked) [compound 12, 4-(3-Methylpiperidin-1-yl)-7-morpholin-4-ylquinazoline]	100 to 500
c1ccc2sc(C3CCCN(c4ncnc5cc(N6CCOCC6)ccc45)C3)nc2c1 (centres unmarked) [compound 14, 4-(3-Benzothiazol-2-ylpiperidin-1-yl)-7-morpholin-4-yl-quinazoline]	< 100
OC1(c2ccccc2)CCCN(c2ncnc3cc(N4CCOCC4)ccc23)C1 (centres unmarked) [compound 15, 1-(7-Morpholin-4-yl-quinazoline-4-yl)-3-phenylpiperidin-3-ol]	500 to 1000
O=C(c1ccc(F)cc1)C1CCCN(c2ncnc3cc(N4CCOCC4)ccc23)C1 (centres unmarked) [compound 16, (4-Fluorophenyl)-[1-(7-morpholin-4-yl-quinazoline-4-yl)-piperidin-3-yl]-methanone]	100 to 500
NC(=O)C1CCCN(c2ncnc3cc(N4CCOCC4)ccc23)C1 (centres unmarked) [compound 17, 1-(7-Morpholin-4-yl-quinazoline-4-yl)-piperidin-3-carboxamide]	500 to 1000
CCOCC1CCCN(c2ncnc3cc(N4CCOCC4)ccc23)C1 (centres unmarked) [compound 18, 4-(3-Ethoxymethyl-piperidin-1-yl)-7-morpholin-4-yl-quinazoline]	100 to 500
Cc1noc(C2CCCN(c3ncnc4cc(N5CCOCC5)ccc34)C2)n1 (centres unmarked) [compound 19, 4-[3-(3-Methyl-1,2,4-oxadiazol-5-yl)-piperidin-1-yl]-7-morpholin-4-yl-quinazoline]	500 to 1000
